Data as given in paper PMC10352304 (2023).
*1 amine or outer side, *2 acyl side, *3 side chain or, on linkers, in order; H or OH if unused. Where a SMILES comes first, the peptide text is derived from it. Bridges are numbered along the chain shown (N, C = ends). Roman numbers before positions name the chains, in order. [ ]: non-standard residue; d: D form. Actinocin(9to1) = Cc1c2oc3c(C)ccc(C(=O)[*:1])c3nc-2c(C(=O)[*:2])c(N)c1=O; NMeV = CN[C@H](C(=O)O)C(C)C; Sar = CNCC(=O)O

Experiments:
[1] = test system: CP (DNA, duplex) AGGTTGGTGAGTGATTGGAGGTT/AATCACTCACCAACCT; test: fluorescence turn-on; conditions: 20 nM CP; site size 2.4; per base
[2] = test system: CP (C 28nt / P 21nt) (DNA, duplex) ACAAGAGGTTGGTGAGTGATTGGAGGTT/AATCACTCACCAACCTCTTGT; test: BIND strand displacement fluorescence; conditions: none (no metal cations); 1x TE, 37 °C; critical binder concentration scales with duplex length
[3] = test system: CP (C 18nt / P 11nt) (DNA, duplex) GGTGAGTGATTGGAGGTT/AATCACTCACC; test: BIND strand displacement fluorescence; conditions: none (no metal cations); 1x TE, 37 °C; critical binder concentration scales with duplex length
[4] = test system: CP (DNA, duplex) AGGTTGGTGAGTGATTGGAGGTT/AATCACTCACCAACCT; test: BIND strand displacement fluorescence, McGhee-von Hippel fit; conditions: none (no metal cations), 1x TE, 37 °C, 20 nM CP, 10 nM invader I, per base
[5] = test system: sink probe 5'-GCGCC-3' (DNA, hairpin) CGCGCGGCAAAAAGCCGCGCG; test: competitive BIND, sink against CP; conditions: none (no metal cations); 1x TE, 37 °C; sink in up to 100-fold excess over CP
[6] = test system: CP (DNA, duplex) AGGTTGGTGAGTGATTGGAGGTT/AATCACTCACCAACCT; test: BIND strand displacement fluorescence; conditions: none (no metal cations); 1x TE, 37 °C; 20 nM CP, 10 nM invader I
[7] = test system: sink probe 5'-TAAAT-3' (DNA, hairpin) CGATTTACAAAAAGTAAATCG; test: competitive BIND, sink against CP; conditions: none (no metal cations); 1x TE, 37 °C; sink in up to 100-fold excess over CP
[8] = test system: CP (75% GC) (DNA, duplex) GGGCTACGCGATGCGCGGAGGTT/GCGCATCGCGTAGCCC; test: BIND strand displacement fluorescence, McGhee-von Hippel fit; conditions: none (no metal cations); 1x TE, 37 °C; 20 nM CP, 10 nM invader I; per base
[9] = test system: CP (25% GC) (DNA, duplex) AATTCGATTAGCAATTGGAGGTT/AATTGCTAATCGAATT; test: as above; conditions: none (no metal cations); 1x TE, 37 °C; 20 nM CP, 10 nM invader I; per base

## CCCN(CCCN(C)C)c1cc(C=C2Sc3ccccc3N2C)c2ccccc2[n+]1-c1ccccc1
[1]
  Kd: 9.3 nM
[2]
  binding: yes
[3]
  binding: yes
[4]; site size 2.6, b11 prints 7.1 nM
  Kd: 7.0 nM

## CCN(CC)CCn1nc2c3c(cccc3c1=O)-c1ccccc1-2
[4]; site size 1.3
  Kd: 212 nM

## Cn1cc(NC(=O)c2cc(NC(=O)CN=C(N)N)cn2C)cc1C(=O)NCCC(=N)N
[5]
  binding: no

## [Ru+2].c1cnc2c(c1)ccc1cccnc12.c1cnc2c(c1)ccc1cccnc12.c1cnc2c(c1)ccc1cccnc12
[6]
  binding: weak

## c1ccc(C[n+]2cccc3ccccc32)cc1
[6]
  binding: no

## Cc1c2oc3c(C)ccc(C(=O)N[C@@H]4C(=O)N[C@H](C(C)C)C(=O)N5CCC[C@H]5C(=O)N(C)CC(=O)N(C)[C@@H](C(C)C)C(=O)O[C@@H]4C)c3nc-2c(C(=O)N[C@@H]2C(=O)N[C@H](C(C)C)C(=O)N3CCC[C@H]3C(=O)N(C)CC(=O)N(C)[C@@H](C(C)C)C(=O)O[C@@H]2C)c(N)c1=O (I: T[dV]P[Sar][NMeV] / II: T[dV]P[Sar][NMeV]; ester I:1-I:C, II:1-II:C; linker I:N-II:N via Actinocin(9to1))
[7]
  binding: no
[8]
  Kd: 83 nM
[9]
  Kd: 983 nM
